In ChEMBL document CHEMBL1201862, “PubChem BioAssay data set” (2004) one finds IC50, AC50 and EC50 data, which are given here for 2 compounds.

Each structure is given as a SMILES string. Activity calls are given as the source filed them. Some results are limits rather than exact numbers.

For experiment [1], the target named is T1, Leucine aminopeptidase (Plasmodium falciparum 3D7, UniProt Q8IL11).
T1 sequence (Q8IL11 whole entry): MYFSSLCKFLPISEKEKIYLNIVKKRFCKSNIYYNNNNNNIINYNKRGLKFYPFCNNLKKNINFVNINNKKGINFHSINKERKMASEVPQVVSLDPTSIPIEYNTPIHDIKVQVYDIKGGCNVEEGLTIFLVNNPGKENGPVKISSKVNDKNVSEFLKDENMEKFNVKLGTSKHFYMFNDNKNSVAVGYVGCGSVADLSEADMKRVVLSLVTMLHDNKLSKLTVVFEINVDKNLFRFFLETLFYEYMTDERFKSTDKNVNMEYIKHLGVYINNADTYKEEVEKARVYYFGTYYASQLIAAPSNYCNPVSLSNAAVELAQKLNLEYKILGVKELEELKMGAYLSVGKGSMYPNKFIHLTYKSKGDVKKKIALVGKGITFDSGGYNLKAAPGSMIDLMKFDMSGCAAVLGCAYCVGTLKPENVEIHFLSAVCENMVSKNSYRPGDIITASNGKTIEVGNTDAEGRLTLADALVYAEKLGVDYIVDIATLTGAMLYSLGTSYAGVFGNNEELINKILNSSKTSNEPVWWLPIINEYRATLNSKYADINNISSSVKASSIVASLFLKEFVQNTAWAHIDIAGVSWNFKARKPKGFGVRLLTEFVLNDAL
The experiment can be described thus: P. falciparum M17LAP inhibitors, primary screen, biochemical, fluorogenic H-Leu-NHMec substrate, 1536-well (AID 1619). It is filed as functional.

Experiment [2] addresses T2, Aspartyl aminopeptidase (Plasmodium falciparum 3D7, UniProt Q8I2J3).
T2 sequence (Q8I2J3 whole entry): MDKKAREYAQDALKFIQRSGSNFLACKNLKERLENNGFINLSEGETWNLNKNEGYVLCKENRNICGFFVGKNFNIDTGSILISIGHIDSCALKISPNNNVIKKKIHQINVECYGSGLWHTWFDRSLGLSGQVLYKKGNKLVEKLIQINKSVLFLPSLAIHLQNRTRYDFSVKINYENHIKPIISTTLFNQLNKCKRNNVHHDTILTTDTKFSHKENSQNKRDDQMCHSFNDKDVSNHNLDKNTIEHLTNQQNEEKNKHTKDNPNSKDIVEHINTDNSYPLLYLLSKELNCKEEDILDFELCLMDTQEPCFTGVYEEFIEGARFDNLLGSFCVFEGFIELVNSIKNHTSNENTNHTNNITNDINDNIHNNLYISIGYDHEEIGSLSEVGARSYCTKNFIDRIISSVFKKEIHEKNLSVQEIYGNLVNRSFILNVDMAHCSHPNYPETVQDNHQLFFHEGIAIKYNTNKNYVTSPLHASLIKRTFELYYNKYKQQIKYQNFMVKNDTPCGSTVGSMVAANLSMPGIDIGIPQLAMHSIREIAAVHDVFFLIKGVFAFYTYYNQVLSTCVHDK
The experiment can be described thus: Counterscreen for inhibitors of M1 and M17 aminopeptidases: QFRET-based biochemical high throughput dose response assay for inhibitors of the Plasmodium falciparum M18 Aspartyl Aminopeptidase (PFM18AAP). [Related PubChem assays: 1619 (Screening assay (M17LAP inhibitors).), 1445 (Screening assay (M1AAP inhibitors).)]. For orientation: The purpose of a counterscreen is to sort out artefacts and off-target activity.

Experiment [3] concerns the target Procathepsin L (Homo sapiens, UniProt P07711). In words: CTSL1 protease inhibition – biochemical, QFRET, 1536-well, counter-screen for M1/M17 aminopeptidase inhibitor project, dose response (AID 2214).
Experiment [4] addresses T3, Replicative DNA helicase DnaB (Mycobacterium tuberculosis, UniProt P9WMR3).
T3 sequence (P9WMR3 whole entry): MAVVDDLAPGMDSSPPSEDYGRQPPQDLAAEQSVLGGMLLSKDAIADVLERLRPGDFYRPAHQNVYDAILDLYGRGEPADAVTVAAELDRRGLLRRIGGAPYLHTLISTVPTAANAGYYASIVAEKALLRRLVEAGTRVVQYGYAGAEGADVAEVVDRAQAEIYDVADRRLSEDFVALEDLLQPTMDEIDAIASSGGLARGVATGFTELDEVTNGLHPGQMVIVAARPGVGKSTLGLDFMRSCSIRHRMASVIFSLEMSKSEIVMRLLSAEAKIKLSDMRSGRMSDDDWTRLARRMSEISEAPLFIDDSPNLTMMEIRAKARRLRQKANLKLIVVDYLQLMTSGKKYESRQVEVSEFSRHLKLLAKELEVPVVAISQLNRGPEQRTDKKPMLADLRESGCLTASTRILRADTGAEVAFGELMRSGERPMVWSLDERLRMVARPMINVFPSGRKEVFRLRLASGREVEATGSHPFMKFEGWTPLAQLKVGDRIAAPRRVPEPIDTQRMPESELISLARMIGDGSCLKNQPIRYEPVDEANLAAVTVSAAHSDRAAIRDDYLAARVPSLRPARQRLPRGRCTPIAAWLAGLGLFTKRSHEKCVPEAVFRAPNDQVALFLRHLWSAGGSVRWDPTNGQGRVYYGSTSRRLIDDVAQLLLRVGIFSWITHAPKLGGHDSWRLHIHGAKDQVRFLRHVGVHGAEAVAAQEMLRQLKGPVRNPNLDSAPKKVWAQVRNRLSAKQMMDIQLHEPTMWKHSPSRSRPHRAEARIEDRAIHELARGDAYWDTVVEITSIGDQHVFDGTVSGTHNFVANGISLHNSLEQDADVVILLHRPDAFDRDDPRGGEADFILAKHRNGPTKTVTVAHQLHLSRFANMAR
In words: DnaB intein splicing inhibitors, dose response, biochemical, cell-free fluorescence (AID 449749). It is filed as functional.

The target of experiment [5] is T4, Protein RecA (Mycobacterium tuberculosis, UniProt P9WHJ3).
T4 sequence (P9WHJ3 whole entry): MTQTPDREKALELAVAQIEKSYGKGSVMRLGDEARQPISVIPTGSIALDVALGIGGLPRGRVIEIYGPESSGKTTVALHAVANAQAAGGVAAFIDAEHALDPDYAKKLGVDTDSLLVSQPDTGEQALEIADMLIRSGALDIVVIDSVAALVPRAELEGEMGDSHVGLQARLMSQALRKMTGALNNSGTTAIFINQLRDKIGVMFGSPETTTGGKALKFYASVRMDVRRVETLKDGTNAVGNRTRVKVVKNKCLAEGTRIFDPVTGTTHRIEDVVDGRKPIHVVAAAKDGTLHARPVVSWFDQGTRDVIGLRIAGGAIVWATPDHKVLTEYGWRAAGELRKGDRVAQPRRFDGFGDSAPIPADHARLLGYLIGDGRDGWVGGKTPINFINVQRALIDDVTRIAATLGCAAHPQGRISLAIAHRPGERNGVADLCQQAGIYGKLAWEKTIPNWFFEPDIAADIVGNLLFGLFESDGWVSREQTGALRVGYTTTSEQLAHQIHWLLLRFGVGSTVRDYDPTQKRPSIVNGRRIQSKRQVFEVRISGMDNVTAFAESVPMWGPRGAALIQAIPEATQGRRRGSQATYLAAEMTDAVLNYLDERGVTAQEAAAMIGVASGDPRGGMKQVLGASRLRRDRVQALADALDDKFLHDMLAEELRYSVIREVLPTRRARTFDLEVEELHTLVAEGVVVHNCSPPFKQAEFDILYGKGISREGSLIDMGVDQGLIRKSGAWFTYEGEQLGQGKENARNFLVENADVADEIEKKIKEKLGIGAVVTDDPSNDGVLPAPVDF
The experiment can be described thus: Fluorescence Cell-Free Homogeneous Dose Retest to Identify Inhibitors of RecA-Intein Splicing Activity. [Related pubchem assays (depositor defined):AID2097, AID2223, AID489010, AID492950]. It is filed as functional.

Experiment [6] deals with Dual specificity tyrosine-phosphorylation-regulated kinase 1A (Rattus norvegicus, UniProt Q63470). It is filed as biochemical, Homo sapiens.
For experiment [7], the target named is Transitional endoplasmic reticulum ATPase (Homo sapiens, UniProt P55072, C522A). In words: Luminescence counterscreen assay for p97 inhibitors: dose response biochemical high throughput screening assay to identify inhibitors of the C522A mutant p97 ATPase: synthesized compounds. [Related pubchem assays: 1481, 1517, 1551 ].
Chain of Transitional endoplasmic reticulum ATPase (Homo sapiens, UniProt P55072, C522A) (P55072 2-806 C522A limits assumed): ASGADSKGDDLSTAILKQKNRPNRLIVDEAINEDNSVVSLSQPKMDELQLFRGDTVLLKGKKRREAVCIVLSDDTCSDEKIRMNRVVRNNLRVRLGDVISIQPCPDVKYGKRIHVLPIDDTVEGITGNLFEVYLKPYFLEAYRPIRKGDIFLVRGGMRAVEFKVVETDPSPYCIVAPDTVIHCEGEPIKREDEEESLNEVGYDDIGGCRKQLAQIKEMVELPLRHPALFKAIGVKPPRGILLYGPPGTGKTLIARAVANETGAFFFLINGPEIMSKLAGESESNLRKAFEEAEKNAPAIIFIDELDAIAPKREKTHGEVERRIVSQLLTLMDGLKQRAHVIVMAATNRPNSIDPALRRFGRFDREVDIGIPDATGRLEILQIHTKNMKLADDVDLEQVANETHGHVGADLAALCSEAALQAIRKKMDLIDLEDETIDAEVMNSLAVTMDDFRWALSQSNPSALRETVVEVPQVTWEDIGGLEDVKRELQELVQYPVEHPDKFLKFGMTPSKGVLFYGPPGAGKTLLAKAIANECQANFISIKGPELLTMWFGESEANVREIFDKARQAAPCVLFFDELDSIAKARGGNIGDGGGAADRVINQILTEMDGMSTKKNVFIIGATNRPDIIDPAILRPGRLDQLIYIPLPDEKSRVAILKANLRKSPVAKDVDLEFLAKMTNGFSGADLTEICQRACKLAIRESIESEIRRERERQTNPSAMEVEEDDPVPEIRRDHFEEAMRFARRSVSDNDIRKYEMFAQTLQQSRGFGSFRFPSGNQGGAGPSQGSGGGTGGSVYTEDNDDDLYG
Experiment [8] has as its target Transitional endoplasmic reticulum ATPase (Homo sapiens, UniProt P55072). In words: Luminescence dose response biochemical high throughput screening assay for inhibitors of the p97 ATPase: synthesized compounds. [Related pubchem assays: 1481, 1517 ].

As usually defined, the IC50 is the midpoint of a concentration-inhibition curve. For orientation: AC50 means the midpoint of the concentration-response curve, whichever way the signal moves. As usually defined, the EC50 is the concentration giving half of the maximal effect.

Chain of Transitional endoplasmic reticulum ATPase (Homo sapiens, UniProt P55072) (P55072 whole entry): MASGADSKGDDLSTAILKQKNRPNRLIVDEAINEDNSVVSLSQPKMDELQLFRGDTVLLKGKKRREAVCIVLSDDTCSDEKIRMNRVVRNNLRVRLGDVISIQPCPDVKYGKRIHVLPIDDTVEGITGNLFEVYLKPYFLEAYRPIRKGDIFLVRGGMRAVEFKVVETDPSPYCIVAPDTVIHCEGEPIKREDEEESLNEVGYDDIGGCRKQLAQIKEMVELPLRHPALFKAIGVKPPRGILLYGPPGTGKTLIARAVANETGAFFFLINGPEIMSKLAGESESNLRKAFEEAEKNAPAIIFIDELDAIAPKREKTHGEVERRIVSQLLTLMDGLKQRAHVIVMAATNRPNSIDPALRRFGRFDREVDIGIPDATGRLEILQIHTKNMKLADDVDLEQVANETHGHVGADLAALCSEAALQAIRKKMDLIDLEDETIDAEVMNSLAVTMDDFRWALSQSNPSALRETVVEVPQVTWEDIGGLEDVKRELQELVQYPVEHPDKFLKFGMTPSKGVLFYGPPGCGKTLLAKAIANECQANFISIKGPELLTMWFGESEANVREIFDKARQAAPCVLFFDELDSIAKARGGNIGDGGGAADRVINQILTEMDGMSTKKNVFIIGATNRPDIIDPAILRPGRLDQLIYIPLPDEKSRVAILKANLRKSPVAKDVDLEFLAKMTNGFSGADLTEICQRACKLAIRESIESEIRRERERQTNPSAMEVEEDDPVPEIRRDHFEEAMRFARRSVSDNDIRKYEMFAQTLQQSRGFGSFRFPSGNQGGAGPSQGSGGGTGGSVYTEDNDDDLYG
Chain of Procathepsin L (P07711 whole entry): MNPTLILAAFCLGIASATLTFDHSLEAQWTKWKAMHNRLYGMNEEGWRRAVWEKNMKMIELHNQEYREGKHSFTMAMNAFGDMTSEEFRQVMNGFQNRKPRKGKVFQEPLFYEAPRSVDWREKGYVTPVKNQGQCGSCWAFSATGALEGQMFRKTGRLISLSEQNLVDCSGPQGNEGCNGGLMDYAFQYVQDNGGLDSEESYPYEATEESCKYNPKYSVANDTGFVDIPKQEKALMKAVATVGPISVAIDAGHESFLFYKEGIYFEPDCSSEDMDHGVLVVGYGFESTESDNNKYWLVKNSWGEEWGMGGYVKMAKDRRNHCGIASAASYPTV

In the case of `COc1ccc(-c2cc(=O)[nH][nH]2)cc1`, the IC50 in experiment [1] is 2.97 µM (active); in experiment [2] it was > 73.5 µM (not active); in experiment [3], > 59.6 µM (not active). The values for the AC50 in experiment [4] and in experiment [6] were 0.882 µM (active) and 5.54 µM (active), respectively. For the same compound, the EC50 in experiment [5] was 0.444 µM (active).
As for `CCOC(=O)/C(C#N)=C/c1ccc(C#N)cc1`, the IC50 in experiment [7] and in experiment [8] was > 50 µM (not active) throughout.
